Laboratory results taken from US20220241416A1, “METHODS FOR THE IDENTIFICATION OF SARM1 NADASE ACTIVITY INHIBITORS AND USES THEREOF” (Bar Ilan University, priority 2021, published 2022).
Several values for one entry are separate records, joined by “and”; a condition that tells them apart may be missing. Equal values may be shown once.

Biological target: T1, hSARM1 (Homo sapiens, UniProt Q6SZW1, E642Q)
T1 construct: short of the N′ terminal mitochondria) localization signal (26ERL . .; 6xHis (N); TEV cleavage site (N); made in house; host or cells: HEK293F suspension cells
T1 sequence (Q6SZW1 with tags, fused parts or gaps E642Q): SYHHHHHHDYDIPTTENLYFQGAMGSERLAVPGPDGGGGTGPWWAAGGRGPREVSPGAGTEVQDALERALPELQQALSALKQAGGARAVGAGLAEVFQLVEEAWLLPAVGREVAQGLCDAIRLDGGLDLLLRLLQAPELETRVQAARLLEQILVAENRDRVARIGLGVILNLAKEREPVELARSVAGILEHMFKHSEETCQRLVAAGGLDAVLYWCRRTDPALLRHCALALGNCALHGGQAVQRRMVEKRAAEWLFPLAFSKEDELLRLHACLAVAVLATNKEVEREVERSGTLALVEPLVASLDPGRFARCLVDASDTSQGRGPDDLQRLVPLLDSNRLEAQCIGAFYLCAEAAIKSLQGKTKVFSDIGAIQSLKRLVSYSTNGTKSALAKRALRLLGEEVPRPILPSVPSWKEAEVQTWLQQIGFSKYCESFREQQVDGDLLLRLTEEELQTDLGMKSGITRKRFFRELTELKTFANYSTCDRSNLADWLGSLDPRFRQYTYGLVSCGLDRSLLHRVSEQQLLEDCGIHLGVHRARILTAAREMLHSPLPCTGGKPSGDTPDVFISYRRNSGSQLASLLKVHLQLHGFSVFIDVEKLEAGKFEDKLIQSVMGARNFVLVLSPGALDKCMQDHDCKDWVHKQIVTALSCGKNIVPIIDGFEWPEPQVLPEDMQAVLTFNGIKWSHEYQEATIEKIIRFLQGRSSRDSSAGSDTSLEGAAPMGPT
Assay: Cryo-EM 2D classification of hSARM1 conformation
Conditions: for effect on hSARM1 conformation: 2D classification / GraFix
Protocol: FIG. 7B: The structural effects of NAD+ and ATP were observed by cryo-EM based on appearance in 2D classification. Presented are the 10 most populated classes (those with the largest number of particles—numbers in green, 1st class is on the left) out of 50-100 from each data collection after the first round of particle picking and classification. By this analysis, the percentage of particles that present full, two-ring structure is 13% (no NAD+); 74% (5 mM NAD+); and 4% (10 mM ATP).
Cryo-EM grids were prepared by applying 3 μl protein samples to glow-discharged (PELCO easiGlow™ Ted Pella Inc., at 15 mA for 1 minute) holey carbon grids (Quantifoil R 1.2/1.3, Micro Tools GmbH, Germany). The grids were blotted for 4 seconds and vitrified by rapidly plunging into liquid ethane at −182° C. using Leica EM GP plunger (Leica Microsystems, Vienna, Austria). The frozen grids were stored in liquid nitrogen until the day of cryo-EM data collection.
The data presented herein was collected with three separate cryo-electron microscopes: 1) F30 Polara in Ben-Gurion University, Israel was used for all sample preparation optimization. It was also used to collect data sets without and with potential inhibitors (shown in FIG. 1C and the ATP and NMN supplemented classes in FIG. 7B). Samples were imaged under low-dose conditions on a FEI Tecnai F30 Polara microscope (FEI, Eindhoven) operating at 300 kV. Datasets were collected using SerialEM (D. N. Mastronarde, et al. Journal of structural biology 152, 36-51 (2005)) on a K2 Summit direct electron detector fitted behind an energy filter (Gatan Quantum GIF) with a calibrated pixel size of 1.1 Å. The energy filter was set to remove electrons >±10 eV from the zero-loss peak energy. The defocus range was set from −1.0 μm to −2.5 μm. The K2 summit camera was operated in counting mode at a dose rate of 8 electrons/pixel/second on the camera. Each movie was dose fractionated into 50 image frames, with total electron dose of 80ē/Å2. Dose-fractionated image stacks were aligned using MotionCorr2 (X. Li et al., Nature methods 10, 584-590 (2013)), and their defocus values estimated by Gctf (K. Zhang, et al. J Struct Biol 193, 1-12 (2016)). The sum of the aligned frames was used for further processing and the rest of the processing was done in Cryosparc V2 (A. Punjani, J. et al. Nature Methods 14, 290-+(2017)). Particles were auto-picked and subjected to local motion correction to correct for beam-induced drift and then 2D classification with 50 classes. The best (based on shape, number of particles and resolution) classes were manually selected containing 5459 (for hSARM1E642Q) and 43868 (for SAM1-2) particles. 1 initial 3D reference was prepared from all particles and 3D refinement imposing C8 symmetry resulted the final map. […]

Structure (SMILES)	percentage of particles that present full, two-ring structure (10 mM ATP, 13% without supplement) [%]	effect on hSARM1 conformation	percentage of particles that present full, two-ring structure (5 mM NAD+, 13% or <20% without NAD+)
Nc1ncnc2c1ncn2[C@@H]1O[C@H](COP(=O)(O)OP(=O)(O)OP(=O)(O)O)[C@@H](O)[C@H]1O [ATP]	4	did not affect hSARM1 conformation	
NC(=O)c1ccc[n+]([C@@H]2O[C@H](COP(=O)([O-])OP(=O)(O)OC[C@H]3O[C@@H](n4cnc5c(N)ncnc54)[C@H](O)[C@@H]3O)[C@@H](O)[C@H]2O)c1 [NAD+, Nicotinamide adenine dinucleotide]			> 80% and 74%
OCC(O)CO [glycerol]		imposes hSARM1 compact conformation	
